The target of experiment [1] is Methyl-CpG-binding domain protein 4 (Homo sapiens) (UniProt O95243). As to conditions: Compound Concentration 10.0 uM.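 Further: MBD4 activity read as fluorescence at 594 nm from cleavage and release of a quenched duplex DNA oligonucleotide, with APE1 coupled to incise the strand and raise turnover.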
Description: Inhibition of MBD4 by quantifying inhibition of MBD4-mediated cleavage and dissociation of quenched duplex DNA oligonucleotides, measured as fluorescence at 594 nm. To generate a functional strand incision and increase turn-over this assay is coupled to APE1.
Experiment [2] deals with DNA-3-methyladenine glycosylase (Homo sapiens) (UniProt P29372). As to conditions: Compound Concentration 10.0 uM, Hit No.
Description: Inhibition of MPG by quantifying inhibition of MPG-mediated cleavage and dissociation of quenched duplex DNA oligonucleotides, measured as fluorescence at 594 nm. To generate a functional strand incision and increase turn-over this assay is coupled to APE1.
Experiment [3] concerns the target T1, Adenine DNA glycosylase (Homo sapiens) (UniProt Q9UIF7).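 Further: human MUTYH activity read as 594 nm fluorescence from cleavage and release of a quenched DNA duplex, coupled with APE1 for strand incision, lower signal meaning inhibition.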
T1 sequence (whole entry): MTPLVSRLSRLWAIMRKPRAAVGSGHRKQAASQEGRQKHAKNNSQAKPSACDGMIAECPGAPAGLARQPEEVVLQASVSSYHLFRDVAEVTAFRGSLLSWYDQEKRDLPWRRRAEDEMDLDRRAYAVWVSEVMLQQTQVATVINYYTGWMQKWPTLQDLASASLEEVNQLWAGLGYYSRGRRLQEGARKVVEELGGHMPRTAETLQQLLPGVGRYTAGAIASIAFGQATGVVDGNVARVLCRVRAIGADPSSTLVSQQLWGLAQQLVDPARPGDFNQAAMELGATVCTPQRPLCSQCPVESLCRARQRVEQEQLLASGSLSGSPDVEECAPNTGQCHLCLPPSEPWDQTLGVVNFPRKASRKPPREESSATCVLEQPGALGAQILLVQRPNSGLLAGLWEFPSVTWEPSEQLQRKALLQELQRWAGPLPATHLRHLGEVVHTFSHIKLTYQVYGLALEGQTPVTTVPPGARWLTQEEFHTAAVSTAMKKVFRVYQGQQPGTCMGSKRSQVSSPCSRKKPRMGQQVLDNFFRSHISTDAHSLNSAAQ
As to conditions: Compound Concentration 10.0 uM, Hit No.
Description: Inhibition of MUTYH by quantifying inhibition of MUTYH-mediated cleavage and dissociation of quenched duplex DNA oligonucleotides, measured as fluorescence at 594 nm. To generate a functional strand incision and increase turn-over this assay is coupled to APE1.

The target of experiment [4] is Endonuclease 8-like 1 (Homo sapiens) (UniProt Q96FI4). Particulars: Compound Concentration 10.0 uM.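 Further: fluorescence at 594 nm from quenched duplex DNA oligonucleotides released by NEIL1 cleavage and strand separation, reported as reduction of this enzyme activity.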
Sequence of Endonuclease 8-like 1 (Homo sapiens) (Q96FI4 whole entry): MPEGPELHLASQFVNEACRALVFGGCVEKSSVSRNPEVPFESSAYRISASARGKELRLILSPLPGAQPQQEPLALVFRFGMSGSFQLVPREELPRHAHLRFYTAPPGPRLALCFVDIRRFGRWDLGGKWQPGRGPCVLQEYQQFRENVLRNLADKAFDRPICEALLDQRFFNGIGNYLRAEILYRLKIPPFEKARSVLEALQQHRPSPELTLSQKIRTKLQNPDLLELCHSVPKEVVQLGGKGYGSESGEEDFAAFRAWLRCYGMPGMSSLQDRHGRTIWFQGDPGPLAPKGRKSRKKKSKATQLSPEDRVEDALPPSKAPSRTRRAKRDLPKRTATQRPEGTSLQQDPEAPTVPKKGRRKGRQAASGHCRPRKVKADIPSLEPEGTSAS
Description: Inhibition of NEIL1 by quantifying inhibition of NEIL1-mediated cleavage and dissociation of quenched duplex DNA oligonucleotides, measured as fluorescence at 594 nm.
For experiment [5], the target named is T2, Endonuclease 8-like 2 (Homo sapiens) (UniProt Q969S2).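 Further: fluorescence at 594 nm reports NEIL2 cutting and release of a quenched double-stranded DNA oligo substrate, reduced signal read as inhibition.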
T2 sequence (whole entry): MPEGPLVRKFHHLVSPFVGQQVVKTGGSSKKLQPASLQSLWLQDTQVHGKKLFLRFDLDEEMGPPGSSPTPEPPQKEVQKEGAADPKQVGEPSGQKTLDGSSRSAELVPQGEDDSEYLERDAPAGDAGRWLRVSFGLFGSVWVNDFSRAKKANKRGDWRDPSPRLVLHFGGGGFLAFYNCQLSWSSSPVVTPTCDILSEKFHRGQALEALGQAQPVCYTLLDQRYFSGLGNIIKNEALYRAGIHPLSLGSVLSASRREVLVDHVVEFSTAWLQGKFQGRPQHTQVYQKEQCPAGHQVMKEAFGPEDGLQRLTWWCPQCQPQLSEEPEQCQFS
Particulars: Compound Concentration 10.0 uM.
Description: Inhibition of NEIL2 by quantifying inhibition of NEIL2-mediated cleavage and dissociation of quenched duplex DNA oligonucleotides, measured as fluorescence at 594 nm.

Experiment [6] addresses T3, Endonuclease III-like protein 1 (Homo sapiens) (UniProt P78549).
T3 sequence (whole entry): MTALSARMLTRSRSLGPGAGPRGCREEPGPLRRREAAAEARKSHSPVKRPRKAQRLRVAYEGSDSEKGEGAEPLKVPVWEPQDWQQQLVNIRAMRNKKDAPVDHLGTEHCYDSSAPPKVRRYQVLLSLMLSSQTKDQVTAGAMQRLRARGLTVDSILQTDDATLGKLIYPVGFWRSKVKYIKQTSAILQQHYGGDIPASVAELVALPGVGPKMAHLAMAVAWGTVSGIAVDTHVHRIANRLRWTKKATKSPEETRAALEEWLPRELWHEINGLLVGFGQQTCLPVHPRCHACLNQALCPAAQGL
Particulars: Compound Concentration 10.0 uM.
Description: Inhibition of NTHL1 by quantifying inhibition of NTHL1-mediated cleavage and dissociation of quenched duplex DNA oligonucleotides, measured as fluorescence at 594 nm.

Experiment [7] concerns the target N-glycosylase/DNA lyase (Homo sapiens) (UniProt O15527). Particulars: Compound Concentration 10.0 uM, Hit No.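 Further: OGG1 cleavage of a quenched duplex DNA oligonucleotide, coupled to APE1 for strand incision, read as fluorescence at 594 nm.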
Description: Inhibition of OGG1 by quantifying inhibition of OGG1-mediated cleavage and dissociation of quenched duplex DNA oligonucleotides, measured as fluorescence at 594 nm. To generate a functional strand incision and increase turn-over this assay is coupled to APE1.
The target of experiment [8] is T4, Single-strand selective monofunctional uracil DNA glycosylase (Homo sapiens) (UniProt Q53HV7).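 Further: enzymatic SMUG1 assay coupled with APE1, reading fluorescence at 594 nm released when a quenched double-stranded DNA oligonucleotide substrate is cleaved and separated.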
T4 sequence (whole entry): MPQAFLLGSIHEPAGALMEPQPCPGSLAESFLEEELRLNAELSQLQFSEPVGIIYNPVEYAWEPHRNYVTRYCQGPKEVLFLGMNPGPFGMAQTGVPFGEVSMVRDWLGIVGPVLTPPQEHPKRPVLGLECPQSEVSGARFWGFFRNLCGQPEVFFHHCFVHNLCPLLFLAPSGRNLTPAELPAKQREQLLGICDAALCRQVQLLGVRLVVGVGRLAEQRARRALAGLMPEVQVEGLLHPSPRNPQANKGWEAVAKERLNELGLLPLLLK
As to conditions: Compound Concentration 10.0 uM, Hit No.
Description: Inhibition of SMUG1 by quantifying inhibition of SMUG1-mediated cleavage and dissociation of quenched duplex DNA oligonucleotides, measured as fluorescence at 594 nm. To generate a functional strand incision and increase turn-over this assay is coupled to APE1.

Experiment [9] addresses G/T mismatch-specific thymine DNA glycosylase (Homo sapiens) (UniProt Q13569). Particulars: Compound Concentration 10.0 uM, Hit No.
Description: Inhibition of TDG by quantifying inhibition of TDG-mediated cleavage and dissociation of quenched duplex DNA oligonucleotides, measured as fluorescence at 594 nm. To generate a functional strand incision and increase turn-over this assay is coupled to APE1.
Experiment [10] has as its target Uracil-DNA glycosylase (Homo sapiens) (UniProt P13051). As to conditions: Compound Concentration 10.0 uM.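 Further: UNG excision on a quenched double-stranded DNA oligo probe, with APE1 added for strand incision and turnover, read as fluorescence at 594 nm as strands separate.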
Description: Inhibition of UNG by quantifying inhibition of UNG-mediated cleavage and dissociation of quenched duplex DNA oligonucleotides, measured as fluorescence at 594 nm. To generate a functional strand incision and increase turn-over this assay is coupled to APE1.

Sequence of Methyl-CpG-binding domain protein 4 (Homo sapiens) (O95243 whole entry, the tested form may be a part): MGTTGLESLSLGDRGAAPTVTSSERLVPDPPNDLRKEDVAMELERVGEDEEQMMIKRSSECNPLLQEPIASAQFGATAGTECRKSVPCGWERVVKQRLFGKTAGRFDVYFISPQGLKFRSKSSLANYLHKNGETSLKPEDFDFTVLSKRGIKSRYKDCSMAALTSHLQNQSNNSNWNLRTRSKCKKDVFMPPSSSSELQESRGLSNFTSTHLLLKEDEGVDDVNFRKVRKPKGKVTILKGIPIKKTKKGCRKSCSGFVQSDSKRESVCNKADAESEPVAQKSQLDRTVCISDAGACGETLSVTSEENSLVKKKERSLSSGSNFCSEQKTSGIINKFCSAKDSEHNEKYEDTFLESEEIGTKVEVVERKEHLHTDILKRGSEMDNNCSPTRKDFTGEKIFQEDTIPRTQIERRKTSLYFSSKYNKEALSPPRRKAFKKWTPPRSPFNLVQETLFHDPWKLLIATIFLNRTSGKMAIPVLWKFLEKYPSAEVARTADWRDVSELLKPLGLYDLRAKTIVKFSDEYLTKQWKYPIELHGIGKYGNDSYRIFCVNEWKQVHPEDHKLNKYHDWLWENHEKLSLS
Sequence of N-glycosylase/DNA lyase (Homo sapiens) (O15527 whole entry): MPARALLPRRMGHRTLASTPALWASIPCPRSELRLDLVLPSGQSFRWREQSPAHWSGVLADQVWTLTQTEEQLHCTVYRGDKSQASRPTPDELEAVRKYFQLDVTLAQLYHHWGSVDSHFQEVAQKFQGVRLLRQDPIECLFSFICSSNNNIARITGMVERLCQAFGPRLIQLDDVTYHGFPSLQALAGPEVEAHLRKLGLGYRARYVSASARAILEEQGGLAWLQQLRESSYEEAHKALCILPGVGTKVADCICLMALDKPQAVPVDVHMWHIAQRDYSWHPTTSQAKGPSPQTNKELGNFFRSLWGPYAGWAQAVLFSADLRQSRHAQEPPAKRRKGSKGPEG
Sequence of Uracil-DNA glycosylase (Homo sapiens) (P13051 whole entry): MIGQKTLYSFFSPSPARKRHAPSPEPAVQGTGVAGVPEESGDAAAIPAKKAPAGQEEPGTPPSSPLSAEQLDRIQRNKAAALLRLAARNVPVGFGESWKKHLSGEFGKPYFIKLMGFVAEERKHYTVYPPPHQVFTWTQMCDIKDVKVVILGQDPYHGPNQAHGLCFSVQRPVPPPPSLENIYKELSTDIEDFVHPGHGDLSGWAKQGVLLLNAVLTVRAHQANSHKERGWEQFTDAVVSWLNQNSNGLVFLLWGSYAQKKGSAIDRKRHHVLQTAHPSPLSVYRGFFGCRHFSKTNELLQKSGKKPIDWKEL
Sequence of DNA-3-methyladenine glycosylase (Homo sapiens) (P29372 whole entry): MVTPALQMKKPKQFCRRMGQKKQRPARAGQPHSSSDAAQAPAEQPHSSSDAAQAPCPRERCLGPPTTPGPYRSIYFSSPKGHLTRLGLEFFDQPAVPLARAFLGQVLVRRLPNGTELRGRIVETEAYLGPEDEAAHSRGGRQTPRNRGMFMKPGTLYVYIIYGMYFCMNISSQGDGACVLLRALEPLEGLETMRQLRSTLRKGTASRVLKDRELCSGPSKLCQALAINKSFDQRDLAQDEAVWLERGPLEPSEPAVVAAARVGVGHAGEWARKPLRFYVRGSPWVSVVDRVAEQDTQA
Sequence of G/T mismatch-specific thymine DNA glycosylase (Homo sapiens) (Q13569 whole entry): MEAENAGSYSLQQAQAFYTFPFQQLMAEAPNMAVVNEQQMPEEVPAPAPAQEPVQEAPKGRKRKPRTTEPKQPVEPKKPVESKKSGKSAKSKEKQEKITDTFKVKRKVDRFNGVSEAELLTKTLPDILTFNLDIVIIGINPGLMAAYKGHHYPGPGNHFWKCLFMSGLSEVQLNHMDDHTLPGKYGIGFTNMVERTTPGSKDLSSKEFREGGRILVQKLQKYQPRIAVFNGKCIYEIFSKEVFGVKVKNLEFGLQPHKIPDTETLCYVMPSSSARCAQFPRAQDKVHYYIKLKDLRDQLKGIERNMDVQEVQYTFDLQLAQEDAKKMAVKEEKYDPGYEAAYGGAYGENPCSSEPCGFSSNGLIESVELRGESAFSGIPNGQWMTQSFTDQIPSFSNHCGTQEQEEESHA

As for `Cc1ccc2nc(NCCN)c3ncc(C)n3c2c1`, the inhibition is 53% in [1] (Hit No); 75.9% in [2]; 83.5% in [3]; 28.9% in experiment [4] (Hit Yes); 47.1% in experiment [5] (Hit Yes); 43.3% in [6] (Hit Yes). Moreover, the inhibition was found to be 47.4% in experiment [7], 44.2% in [8], 67.6% in experiment [9] and 14.9% in experiment [10] (Hit No).

As for `O=c1cccc2n1C[C@@H]1CNC[C@H]2C1`, the inhibition in [1] (Hit No) is 10.5%; in experiment [2] it was -3.1%; in [3] it was 43.9%; in [4] (Hit No), -1.18%; in experiment [5] (Hit No), -3.15%; in experiment [6] (Hit No), -4.39%. Also, the inhibition in experiment [7] is -5.41%; in experiment [8] it was -3.8%; in experiment [9], -5.51%; in experiment [10] (Hit No), -3.14%.

On to `CC1(C)CN2C(CS/C(=N\C3CCCCC3)NC3CCCCC3)=CSC2=N1`, for which the inhibition in experiment [1] (Hit No) is 7.88%; in [2], 8.86%; in experiment [3], 4.05%; in [4] (Hit No), 6.38%; in experiment [5] (Hit No), -0.86%; in experiment [6] (Hit No), 11.3%. Also, the inhibition was 5.96% in [7], -4.87% in [8], -0.781% in experiment [9] and -3.07% in experiment [10] (Hit No).

Take `COc1cc2nc(N3CCN(C(=O)C4CCCO4)CC3)nc(N)c2cc1OC` (stereo not given): the inhibition is 17% in [1] (Hit No); 11.2% in experiment [2]; 19% in experiment [3]; 13.6% in experiment [4] (Hit No); 22.5% in [5] (Hit No); -3.21% in experiment [6] (Hit No). In addition, the inhibition in experiment [7] is 0.439%; in experiment [8], 3.65%; in experiment [9], 22.2%; in experiment [10] (Hit No), -7.11%.

For the molecule `O=C(O)CC1CCC2(CC1)CCN(c1cc(OC(F)(F)F)ccc1Cl)CC2`, the inhibition in experiment [1] (Hit No) was 25.2%; in experiment [2] it was 14.1%; in experiment [3], 19.4%; in [4] (Hit No) it was 3.8%; in experiment [5] (Hit No), 7.5%; in experiment [6] (Hit No), -1.74%. The inhibition in experiment [7] is 8.63%; in [8], 4.67%; in experiment [9], 32.9%; in experiment [10] (Hit No), -5.76%.

As for `COc1cc(NC(=O)c2ccc(-c3ccc(Cl)cc3)o2)cc(OC)c1`, the inhibition in experiment [1] (Hit No) was 21.1%; in experiment [2], 18%; in experiment [3], -0.703%; in experiment [4] (Hit No) it was 6.97%; in [5] (Hit No), -9.78%; in experiment [6] (Hit No), 8.82%. The inhibition in [7] is 3.08%; in experiment [8], 15.3%; in [9], 9.84%; in experiment [10] (Hit No), 3.14%.

On to `CCOC(=O)c1c(C)[nH]c2ccc3c(c12)CN1CCc2cc(OC)ccc2C1O3` (stereo not given), for which the inhibition in experiment [1] (Hit No) was 29.1%; in experiment [2], 18.6%; in [3], 18.2%; in experiment [4] (Hit No), -0.0556%; in experiment [5] (Hit No), 3.01%; in experiment [6] (Hit No) it was -1.01%. Further, the inhibition was 32.3% in experiment [7], 8.69% in experiment [8], 29.8% in [9] and -1.04% in [10] (Hit No).

With `CC(/C=C1\SC(=S)N(CCCC(=O)Nc2ccc(C(=O)O)c(O)c2)C1=O)=C\c1ccccc1`, the inhibition in [1] (Hit No) worked out at 64%; in experiment [2] it was 34.2%; in experiment [3] it was 46.5%; in experiment [4] (Hit No) it was 11.6%; in [5] (Hit No) it was 13.7%; in [6] (Hit No), 0.0916%. Besides, the inhibition in experiment [7] is 25.4%; in experiment [8] it was -1.92%; in [9] it was 53%; in [10] (Hit No), -7.24%.

In the case of `O=c1c(Br)ccc2n1C[C@@H]1CNC[C@H]2C1`, the inhibition was 13.1% in experiment [1] (Hit No); 3.69% in experiment [2]; -5.79% in experiment [3]; 1.79% in [4] (Hit No); -6.72% in [5] (Hit No); 8.82% in experiment [6] (Hit No). Further, the inhibition in experiment [7] is -1.3%; in experiment [8], 8.97%; in [9] it was 22.8%; in experiment [10] (Hit No), -0.226%.

`Nc1nc2cc(-c3cc(Cl)ccc3Oc3cc(F)c(S(=O)(=O)Nc4ncns4)cc3F)ccc2[nH]1`: the inhibition in experiment [1] (Hit No) was 38.8%; in [2], 20.7%; in experiment [3], 39.3%; in experiment [4] (Hit No), 6.97%; in experiment [5] (Hit No) it was -7.23%; in experiment [6] (Hit No), 6.35%. Besides, the inhibition in experiment [7] is -2.14%; in experiment [8], 4.45%; in experiment [9], 33.8%; in experiment [10] (Hit No), 1.83%.

`Cc1ccnc(Nc2nc(-c3ccccn3)cs2)c1`: the inhibition is 9.11% in [1] (Hit No); 16% in experiment [2]; 13.9% in [3]; -0.88% in [4] (Hit No); 9.84% in experiment [5] (Hit No); 17.1% in experiment [6] (Hit No). The inhibition in experiment [7] was -1.19%; in experiment [8], 5.18%; in [9] it was 17.8%; in experiment [10] (Hit No) it was -7.33%.

Regarding `CCNC(=O)NS(=O)(=O)c1sc(CC(C)C)cc1-c1ccc(Cn2c(-c3ccccc3)nc(OC)c2C=O)cc1`, the inhibition in [1] (Hit Yes) came out at 78.6%; in [2] it was 51.7%; in [3], 90.4%; in [4] (Hit No) it was 12.3%; in experiment [5] (Hit No), 7.29%; in [6] (Hit No), 8.82%. The inhibition in [7] was determined as 21.2%; in experiment [8], 36.2%; in [9] it was 64.7%; in experiment [10] (Hit No) it was 6.28%.

As to `COc1cccc2c1c(NS(=O)(=O)c1ccc(Cl)s1)nn2Cc1cccc(CNC(=O)C(C)(C)O)c1`, the inhibition in experiment [1] (Hit No) was 19.3%; in [2], -4.44%; in experiment [3], 7.32%; in experiment [4] (Hit No) it was -1.47%; in experiment [5] (Hit No) it was 1.18%; in experiment [6] (Hit No), 8%. The inhibition in experiment [7] is -5.21%; in [8], -4.59%; in [9], 0.908%; in experiment [10] (Hit No), -8.69%.

Turning to `CC(=O)Nc1cccc2c1c(Sc1ccc(Cl)cc1)c(C)n2CC(=O)O`, the inhibition in experiment [1] (Hit No) was 11.4%; in experiment [2], 5.39%; in experiment [3], 23.9%; in experiment [4] (Hit No) it was -0.204%; in experiment [5] (Hit No), 5.76%; in experiment [6] (Hit No), 6.32%. The inhibition in experiment [7] was 3.49%; in [8], -1.39%; in experiment [9] it was 16.4%; in experiment [10] (Hit No), -0.965%.

As to `CCn1cc(-c2ccnc3[nH]c(-c4cccc(CN(C)C)c4)cc23)c(-c2ccc(NC(=O)N(C)C)cc2)n1`, the inhibition in experiment [1] (Hit No) was 22.5%; in [2] it was 62.9%; in experiment [3] it was 78.6%; in [4] (Hit No) it was -6.47%; in [5] (Hit No), 23.1%; in experiment [6] (Hit No) it was 2.18%. The inhibition in experiment [7] amounted to 14.9%; in experiment [8] it was 24.3%; in experiment [9], 49%; in experiment [10] (Hit Yes), 25%.

The term inhibition denotes the relative decrease from the control value, in per cent.

(Values after ChEMBL document CHEMBL5665443, “Enzyme Inhibitor Single Concentration assay results for EUbOPEN Chemogenomics Library” (2024).)
